Reference: ChEMBL document CHEMBL3228010, “Potential antitumor agents. 29. Quantitative structure-activity relationships for the antileukemic bisquaternary ammonium heterocycles” (J Med Chem, 1979)

Experiments:
[1] = Displacement of ethidium from poly[d(G-C)]-poly[d(G-C)] DNA (unknown origin) by fluorimetric method
[2] = Lipophilic-hydrophilic balance, Rm of the compound by partition chromatography; assay type: physicochemical
Mus musculus = assay: Toxicity in ip dosed C3H X DBA2 F1 hybrid mouse […] with mouse L1210 cells on day 0 and dosed once daily on days 1 to 5 measured after 50 days; assay type: organism-based; details: in vivo, 1200 h
L1210 [3] = assay: Antitumor activity against mouse L1210 cells […] in ip dosed C3H X DBA2 F1 hybrid mouse on day 0 and dosed once daily on days 1 to 5 assessed as increase in life span relative to control; assay type: functional
L1210 [4] = assay: Antitumor activity against mouse L1210 cells […] in ip dosed C3H X DBA2 F1 hybrid mouse on day 0 and dosed at LD10 level once daily on days 1 to 5 assessed as increase in life span relative to control; assay type: functional
[5] = Displacement of ethidium from poly[d(A-T)]-poly[d(A-T)] DNA by fluorimetric method
Bos taurus = species on record: Bos taurus; assay: Displacement of ethidium from calf thymus DNA by fluorimetric method

C[n+]1ccc(Nc2ccc(NC(=O)/C=C/c3ccc(C(=O)Nc4ccc(Nc5cc[n+](C)cc5)c(N)c4)cc3)cc2N)cc1.Cc1ccc(S(=O)(=O)[O-])cc1.Cc1ccc(S(=O)(=O)[O-])cc1
C50 [1]: 1.5 µM
Rm [2]: 0.04
LD10 (Mus musculus): 6.7 mg/kg
D40 (L1210 [3]): 1.4 mg/kg
log(ILSmax) (L1210 [4]): 2.3
C50 [5]: 0.08 µM
C50 (Bos taurus): 1.5 µM

CC[n+]1ccc(Nc2ccc(NC(=O)c3ccc(Nc4cc[n+](CC)c5ccccc45)cc3)cc2)cc1.[Br-].[Br-]
C50 [1]: 3.1 µM
Rm [2]: 0.54
LD10 (Mus musculus): 15 mg/kg
D40 (L1210 [3]): 2.8 mg/kg
log(ILSmax) (L1210 [4]): 2.07
C50 [5]: 0.19 µM
C50 (Bos taurus): 2 µM

C[n+]1cccc2cc(NC(=O)c3ccc(NC(=O)c4ccc(C(=O)Nc5ccc6c(ccc[n+]6C)c5)cc4)cc3)ccc21.Cc1ccc(S(=O)(=O)[O-])cc1.Cc1ccc(S(=O)(=O)[O-])cc1
C50 [1]: 0.36 µM
Rm [2]: -0.7
LD10 (Mus musculus): 100 mg/kg
D40 (L1210 [3]): 39 mg/kg
log(ILSmax) (L1210 [4]): 2.04
C50 [5]: 0.28 µM
C50 (Bos taurus): 0.37 µM

COc1cccc2c(Nc3ccc(C(=O)Nc4ccc(Nc5cc[n+](C)cc5)cc4)cc3)cc[n+](C)c12.[Br-].[Br-]
C50 [1]: 1.62 µM
Rm [2]: 0.3
LD10 (Mus musculus): 6 mg/kg
D40 (L1210 [3]): 0.3 mg/kg
log(ILSmax) (L1210 [4]): 2.14
C50 [5]: 0.16 µM
C50 (Bos taurus): 0.76 µM

COc1cc(N)cc2c(Nc3ccc(NC(=O)c4ccc(Nc5cc[n+](C)cc5)cc4)cc3)cc[n+](C)c12.Cc1ccc(S(=O)(=O)[O-])cc1.Cc1ccc(S(=O)(=O)[O-])cc1
C50 [1]: 0.61 µM
Rm [2]: 0.07
LD10 (Mus musculus): 56 mg/kg
D40 (L1210 [3]): 1.1 mg/kg
log(ILSmax) (L1210 [4]): 2.33
C50 [5]: 0.1 µM
C50 (Bos taurus): 0.31 µM

C[n+]1cccc(NC(=O)c2ccc(NC(=O)c3ccc(C(=O)Nc4ccc(N/N=N/c5ccc(C(=N)N)cc5)cc4)cc3)cc2)c1.Cc1ccc(S(=O)(=O)O)cc1.Cc1ccc(S(=O)(=O)[O-])cc1
C50 [1]: 0.64 µM
Rm [2]: -0.77
LD10 (Mus musculus): 35 mg/kg
D40 (L1210 [3]): 6 mg/kg
log(ILSmax) (L1210 [4]): 2.1
C50 [5]: 0.22 µM
C50 (Bos taurus): 0.48 µM

C[n+]1cccc(NC(=O)c2ccc(NC(=O)c3ccc(C(=O)Nc4ccc(C(=O)Nc5ccc[n+](C)c5)c(N)c4)cc3N)cc2)c1.Cc1ccc(S(=O)(=O)[O-])cc1.Cc1ccc(S(=O)(=O)[O-])cc1
C50 [1]: 0.54 µM
Rm [2]: -0.7
LD10 (Mus musculus): 9 mg/kg
D40 (L1210 [3]): 1.4 mg/kg
log(ILSmax) (L1210 [4]): 2.32
C50 [5]: 0.15 µM
C50 (Bos taurus): 0.39 µM

C[n+]1ccc(Nc2ccc(NC(=O)c3ccc(Nc4c(-c5ccccc5)c[n+](C)c5ccc(N)cc45)cc3)cc2)cc1.[Br-].[Br-]
C50 [1]: 0.63 µM
Rm [2]: 0.65
LD10 (Mus musculus): 22 mg/kg
D40 (L1210 [3]): 10 mg/kg
log(ILSmax) (L1210 [4]): 1.78
C50 [5]: 0.15 µM
C50 (Bos taurus): 0.39 µM

Cc1c(C(=O)Nc2ccc(C(=O)Nc3ccc[n+](C)c3)cc2)ccc(C(=O)Nc2ccc(C(=O)Nc3ccc[n+](C)c3)cc2)c1C.Cc1ccc(S(=O)(=O)[O-])cc1.Cc1ccc(S(=O)(=O)[O-])cc1
C50 [1]: 12 µM
Rm [2]: 0.47
LD10 (Mus musculus): 19 mg/kg
D40 (L1210 [3]): 14.7 mg/kg
log(ILSmax) (L1210 [4]): 1.65
C50 [5]: 5.4 µM
C50 (Bos taurus): 6.9 µM

C[n+]1cccc(NC(=O)c2ccc(NC(=O)c3ccc(Nc4c5ccccc5[n+](C)c5ccc(N)cc45)cc3)cc2)c1.[Cl-].[Cl-]
C50 [1]: 0.25 µM
Rm [2]: 0.44
LD10 (Mus musculus): 55 mg/kg
D40 (L1210 [3]): 9 mg/kg
log(ILSmax) (L1210 [4]): 2.36
C50 [5]: 0.09 µM
C50 (Bos taurus): 0.17 µM

C/C(=N\NC(=N)N)c1ccc(NC(=O)c2ccc(C(=O)Nc3ccc(C(=O)Nc4ccc[n+](C)c4)cc3)cc2)cc1.Cc1ccc(S(=O)(=O)O)cc1.Cc1ccc(S(=O)(=O)[O-])cc1
C50 [1]: 0.52 µM
Rm [2]: -0.53
LD10 (Mus musculus): 20 mg/kg
D40 (L1210 [3]): 8.7 mg/kg
log(ILSmax) (L1210 [4]): 1.93
C50 [5]: 0.3 µM
C50 (Bos taurus): 0.46 µM

Br.C/C(=N\NC(=N)N)c1ccc(NC(=O)Nc2ccc(Nc3cc[n+](C)c4ccc(N)cc34)cc2)cc1.[Br-]
C50 [1]: 0.53 µM
Rm [2]: -0.15
LD10 (Mus musculus): 150 mg/kg
D40 (L1210 [3]): 18.5 mg/kg
log(ILSmax) (L1210 [4]): 2.2
C50 [5]: 0.25 µM
C50 (Bos taurus): 0.42 µM

Br.C/C(=N\NC(=N)N)c1ccc(NC(=O)c2ccc(Nc3cc[n+](C)c4ccccc34)cc2)cc1.[Br-]
C50 [1]: 1.04 µM
Rm [2]: -0.07
LD10 (Mus musculus): 33 mg/kg
D40 (L1210 [3]): 13 mg/kg
log(ILSmax) (L1210 [4]): 1.91
C50 [5]: 0.39 µM
C50 (Bos taurus): 0.78 µM

C[n+]1cccc(NC(=O)c2ccc(NC(=O)c3ccc(C(=O)Nc4ccc(NC(=N)NC(=N)N)cc4)cc3)cc2)c1.I.[I-]
C50 [1]: 1.71 µM
Rm [2]: -0.4
LD10 (Mus musculus): 11 mg/kg
D40 (L1210 [3]): 1 mg/kg
log(ILSmax) (L1210 [4]): 2.2
C50 [5]: 0.77 µM
C50 (Bos taurus): 1.14 µM

CCCC[n+]1cccc(C(=O)Nc2ccc(NC(=O)c3ccc(C(=O)Nc4ccc5c(ccc[n+]5CCCC)c4)cc3)cc2)c1.Cc1ccc(S(=O)(=O)[O-])cc1.Cc1ccc(S(=O)(=O)[O-])cc1
C50 [1]: 4.2 µM
Rm [2]: 0.65
LD10 (Mus musculus): 19 mg/kg
D40 (L1210 [3]): 12 mg/kg
log(ILSmax) (L1210 [4]): 1.72
C50 [5]: 2.1 µM
C50 (Bos taurus): 2.5 µM

C[n+]1cccc(NC(=O)c2ccc(NC(=O)c3ccc(C(=O)Nc4ccc(C(=O)Nc5ccc[n+](C)c5)c5ccccc45)cc3)cc2)c1.Cc1ccc(S(=O)(=O)[O-])cc1.Cc1ccc(S(=O)(=O)[O-])cc1
C50 [1]: 2.6 µM
Rm [2]: 0.08
LD10 (Mus musculus): 75 mg/kg
D40 (L1210 [3]): 72 mg/kg
log(ILSmax) (L1210 [4]): 1.65
C50 [5]: 2.3 µM
C50 (Bos taurus): 2.2 µM

C[n+]1cccc(NC(=O)c2ccc(NC(=O)c3ccc(C(=O)Nc4ccc(-c5ccc(-c6ccc(-c7ccc[n+](C)c7)cc6)cc5)cc4)cc3)cc2)c1.Cc1ccc(S(=O)(=O)[O-])cc1.Cc1ccc(S(=O)(=O)[O-])cc1
C50 [1]: 0.84 µM
Rm [2]: -0.4
LD10 (Mus musculus): 14 mg/kg
D40 (L1210 [3]): 2.5 mg/kg
log(ILSmax) (L1210 [4]): 2.25
C50 [5]: 0.5 µM
C50 (Bos taurus): 0.63 µM

C[n+]1cc(-c2ccc(NC(=O)c3ccc(Nc4cc[n+](C)c5ccc(N)cc45)cc3N)cc2)c(N)nc1N.Cc1ccc(S(=O)(=O)[O-])cc1.Cc1ccc(S(=O)(=O)[O-])cc1
C50 [1]: 1.08 µM
Rm [2]: -0.25
LD10 (Mus musculus): 75 mg/kg
D40 (L1210 [3]): 4.4 mg/kg
log(ILSmax) (L1210 [4]): 2.41
C50 [5]: 0.11 µM
C50 (Bos taurus): 0.62 µM

C[n+]1ccc(-c2ccc(NC(=O)c3ccc(Nc4cc[n+](C)c5ccccc45)cc3)cc2)cc1.Cc1ccc(S(=O)(=O)[O-])cc1.Cc1ccc(S(=O)(=O)[O-])cc1
C50 [1]: 3 µM
Rm [2]: 0.33
LD10 (Mus musculus): 15 mg/kg
D40 (L1210 [3]): 2.2 mg/kg
log(ILSmax) (L1210 [4]): 2.08
C50 [5]: 0.3 µM
C50 (Bos taurus): 0.89 µM

C[n+]1cccc(NC(=O)c2ccc(NC(=O)c3ccc(C(=O)Nc4ccc(NC(=N)N)cc4)cc3)cc2)c1.I.[I-]
C50 [1]: 2.07 µM
Rm [2]: -0.12
LD10 (Mus musculus): 8 mg/kg
D40 (L1210 [3]): 0.2 mg/kg
log(ILSmax) (L1210 [4]): 2.18
C50 [5]: 0.91 µM
C50 (Bos taurus): 1.38 µM

Cc1ccc(S(=O)(=O)[O-])cc1.Cc1ccc(S(=O)(=O)[O-])cc1.Cc1ccc2c(c1)c(Nc1ccc(C(=O)Nc3ccc(Nc4cc[n+](C)cc4)cc3)cc1)cc[n+]2C
C50 [1]: 2.28 µM
Rm [2]: 0.51
LD10 (Mus musculus): 15 mg/kg
D40 (L1210 [3]): 1 mg/kg
log(ILSmax) (L1210 [4]): 2.17
C50 [5]: 0.17 µM
C50 (Bos taurus): 1.05 µM

C[n+]1ccc(Nc2ccc(NC(=O)c3ccc(Nc4cc[n+](C)c5cc(N)ccc45)cc3)cc2)cc1.[Br-].[Br-]
C50 [1]: 1.4 µM
Rm [2]: 0.08
LD10 (Mus musculus): 11 mg/kg
D40 (L1210 [3]): 2 mg/kg
log(ILSmax) (L1210 [4]): 2.11
C50 [5]: 0.23 µM
C50 (Bos taurus): 0.68 µM

C[n+]1ccc(Nc2ccc(NC(=O)c3ccc(Nc4cc[n+](C)c5cc([N+](=O)[O-])ccc45)cc3)cc2)cc1.Cc1ccc(S(=O)(=O)[O-])cc1.Cc1ccc(S(=O)(=O)[O-])cc1
C50 [1]: 1.3 µM
Rm [2]: 0.15
LD10 (Mus musculus): 27 mg/kg
D40 (L1210 [3]): 3 mg/kg
log(ILSmax) (L1210 [4]): 2.02
C50 [5]: 0.2 µM
C50 (Bos taurus): 0.69 µM

C[n+]1cccc(NC(=O)c2ccc(NC(=O)c3ccc(C(=O)Nc4ccc(C(=O)Nc5ccc[n+](C)c5)cc4)c(N)c3)cc2)c1.Cc1ccc(S(=O)(=O)[O-])cc1.Cc1ccc(S(=O)(=O)[O-])cc1
C50 [1]: 0.93 µM
Rm [2]: -0.63
LD10 (Mus musculus): 20 mg/kg
D40 (L1210 [3]): 3.9 mg/kg
log(ILSmax) (L1210 [4]): 2.17
C50 [5]: 0.37 µM
C50 (Bos taurus): 0.53 µM

C[n+]1cc(-c2ccc(NC(=O)/C=C/c3ccc(C(=O)Nc4ccc(-c5c[n+](C)c(N)nc5N)cc4)cc3)cc2)c(N)nc1N.Cc1ccc(S(=O)(=O)[O-])cc1.Cc1ccc(S(=O)(=O)[O-])cc1
C50 [1]: 0.57 µM
Rm [2]: -0.62
LD10 (Mus musculus): 50 mg/kg
D40 (L1210 [3]): 10.7 mg/kg
log(ILSmax) (L1210 [4]): 2.2
C50 [5]: 0.11 µM
C50 (Bos taurus): 0.4 µM

COc1ccc2c(c1)c(Nc1ccc(C(=O)Nc3ccc(Nc4cc[n+](C)cc4)cc3)cc1)cc[n+]2C.Cc1ccc(S(=O)(=O)[O-])cc1.Cc1ccc(S(=O)(=O)[O-])cc1
C50 [1]: 1.15 µM
Rm [2]: 0.46
LD10 (Mus musculus): 50 mg/kg
D40 (L1210 [3]): 1.5 mg/kg
log(ILSmax) (L1210 [4]): 2.2
C50 [5]: 0.19 µM
C50 (Bos taurus): 0.68 µM
